This note sets out measurements from patent US20050004007A1, “Promotion of adoptosis in cancer cells by co-administration of cyclin dependent kinase inhibitiors and cellular differentiation agents” (priority 2000, published 2005).

In one assay the test system is XIAP. As to the kind of experiment: Western analysis of XIAP in U937 cells. The note with it: FP 100 nM, SB 1 mM. It is filed as cell-based, human. The procedure: Alternatively, whole cell-pellets were washed twice in PBS, resuspended in PBS, and lysed by the addition of I volume of loading buffer. Lysates were boiled for 10 min, centrifuged at 12,800 g for 5 min and quantified using Coomassie protein assay reagent (Pierce, Rockfold, Ill.). 25 μg of total proteins per point were separated by SDS-PAGE and electro-blotted to nitrocellulose. The blots were blocked in 5% non-fat milk in PBS-T and probed for 1 h with the appropriate dilution of primary antibody. Blots were washed 3×10 min in PBS-T and then incubated with a 1:2000 dilution of peroxidase-conjugated secondary antibody for 1 h at room temperature. Blots were again washed 3×10 min in PBS-T and then developed by enhanced chemiluminesence. Where indicated, blots were stripped and re-probed with antibodies directed against actin. […]

For a further assay, the system named is p27KIP1. The experiment in a line: Western analysis of p27KIP1 expression in U937 cells. Particulars: 10 nM PMA, FP 50-100 nM, 24 h. It counts as cell-based, human. The procedure: Western analysis. Equal quantities of protein (15 μg/condition for MAPK, 40 μg/condition for cytochrome c, or 25 μg/condition) were separated by SDS-PAGE [underphosporylated pRB (7.5%), poly(ADP-ribose)polymerase or PARP (8.0%), p44/p42 MAPK (10%), p21, p27, procaspase 3 (12%), and cytochrome c (15%)] and electroblotted onto nitrocellulose. Western analysis of p44/p42 MAPK protein was performed according to the manufacturer's instructions (New England Biolabs); otherwise, studies were performed as previously described [Wang et al, 1998]. Briefly, U937 cells (5×10^6) were pelleted by centrifugation, resuspended in 50 μl PBS, lysed by the addition of 2× Laemmli buffer and boiled for 5 min. Proteins were quantified with Coomassie protein assay reagent. Blots were blocked in PBS-T/5% milk, washed twice with PBS-T, and incubated overnight at 4° C. with the appropriate primary antibody. The blots were washed with PBS-T and incubated with a horseradish-peroxidase conjugated secondary antibody diluted appropriately in PBS-T/5% mill. […]
Alternatively, whole cell-pellets were washed twice in PBS, resuspended in PBS, and lysed by the addition of I volume of loading buffer. Lysates were boiled for 10 min, centrifuged at 12,800 g for 5 min and quantified using Coomassie protein assay reagent (Pierce, Rockfold, Ill.). […]

For assay [1], the system named is HL60 human leukemia cells. The experiment in a line: loss of mitochondrial membrane potential (DiOC6 uptake). Particulars: 3, 5, or 10 μM ATRA and 80 nM FP. It counts as cell-based. Here is the method:
Assessment of mitochondrial membrane potential. At designated times, 1 ml aliquots of cells (2×10^5) were harvested and incubated with 40 nM DiOC6 for 15 minutes at 25° C. as previously described [Zamzami et al 1995]or at 37° C. Samples were analyzed using a Becton Dickinson FACScan flow cytometer (excitation λ=488 nm; emission λ=525 nm). […] Data acquisition and analysis was performed using […] Software (Becton Dickinson, Mansfield, Mass.).

The subject of assay [2] is U937 human leukemia cells. As to the kind of experiment: morphological assessment of apoptosis (Wright and Giemsa-stained cytospin). It is filed as cell-based. The source says: Cell culture. The myelomonocytic leukemia cell line U937 was derived from a patient with histiocytic lymphoma and was obtained from American Type Culture Collection. The HL-60 cell line was derived from a patient with acute promyelocytic leukemia as previously described [Grant et al. 1992]. U937 and HL-60 cells were maintained in logarithmic growth phase by culturing in suspension in phenol red-free RPMI-1640 (Life Technologies, Inc., Grand Island, N.Y.) and 10% (v/v) fetal calf serum (Hyclone, Logan, Utah), in a humidified atmosphere (95% air/5% CO2) at 37° C. To obtain antisense-expressing cell lines, U937 cells were transfected by electroporation with a pREP4 vector (Invitrogen; Carlsbad, Calif.) or the pREP4 vector containing the p21^WAF1/CIP1 coding region in an antisense orientation as previously described [Wang et al. 1999]. […]
Morphological assessment of apoptosis. U937 cells were evaluated for apoptosis by morphological assessment of Wright and Giemsa-stained cytospin preparations. At designated times, cells were transferred to slides by cytocentrifugation, fixed, stained, and evaluated under light microscopy for treatment-induced apoptosis. […] Five or more randomly selected fields, encompassing a total≧500 cells/slide, were evaluated to determine the percentage of apoptotic cells for each treatment condition.

The structures appear in SMILES notation.

As to `CN1CC[C@H](c2c(O)cc(O)c3c(=O)cc(-c4ccccc4Cl)oc23)[C@H](O)C1` [FP, Flavopiridol], the “levels of XIAP” value with XIAP is reported as “modest decreases”. Besides, the p27KIP1 expression result in the assay on p27KIP1 is “no effect”. Besides, the “loss of mitochondrial membrane potential (Δψm)” value in assay [1] is on record as “no effect”. The “percentage of apoptotic cells” value in assay [2] (FP concentrations ≦100 nM, regardless of treatment interval (6-24 h)) is recorded as no more than 10%. Also, the induction of apoptosis entry in assay [2] (FP concentrations ≧200 nM, chronic exposures (12 or 24 h)) was “susceptible to apoptosis”.
